Reference: paper PMC5995905, “Confirmation of high-throughput screening data and novel mechanistic insights into VDR-xenobiotic interactions by orthogonal assays” (Scientific Reports, 2018)
“And” between values parts separate entries of the source, which are not always exact repeats. Equal values may be shown once. “Also recorded” adds a separate entry of the source. Read-outs that look alike come from different tables or passages of the source. One block for each compound: values may come before it.

How the values were obtained:
human VDR [1] = biological target: T1, human VDR (Homo sapiens, UniProt P11473)
T1 sequence (P11473 1-427): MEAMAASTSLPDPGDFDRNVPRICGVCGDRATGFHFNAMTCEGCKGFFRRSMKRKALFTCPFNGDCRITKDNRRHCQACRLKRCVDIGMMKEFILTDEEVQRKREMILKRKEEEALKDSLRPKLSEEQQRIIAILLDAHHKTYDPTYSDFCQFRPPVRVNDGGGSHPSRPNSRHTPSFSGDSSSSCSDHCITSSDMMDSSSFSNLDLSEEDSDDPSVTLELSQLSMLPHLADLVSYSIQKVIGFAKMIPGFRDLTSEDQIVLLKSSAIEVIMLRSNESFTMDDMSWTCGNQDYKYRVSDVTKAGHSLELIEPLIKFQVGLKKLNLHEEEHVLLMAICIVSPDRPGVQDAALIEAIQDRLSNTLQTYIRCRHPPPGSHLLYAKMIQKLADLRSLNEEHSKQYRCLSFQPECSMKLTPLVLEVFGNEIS

[2] = biological target: human VDR ligand-binding domain; set-up: method as in PMID 21543282; settings: agonist mode, cited from earlier work; for AC50: Tox21 qHTS data set, * = range of values
human VDR [3] = biological target: T1, human VDR; assay: Transient transactivation assay (CYP24-Luc), agonist mode, HEK293T cells
VDR:SRC-1 = VDR:SRC-1 (Homo sapiens, UniProt P11473); assay: Mammalian 2-hybrid assay, recruitment of coactivator SRC-1 by VDR, Cos7 cells
VDR:NCoR = biological target: T2, VDR:NCoR (Homo sapiens, UniProt P11473); assay: Mammalian 2-hybrid assay, recruitment of corepressor NCoR by VDR, Cos7 cells
T2 sequence (P11473 1-427): T1 sequence (P11473 1-427)

human VDR [4] = biological target: T1, human VDR; assay: Transient transactivation assay (CYP24-Luc), antagonist mode with 3 nM 1,25D3, HEK293T cells; assay type: cell-based; settings: for IC50: read-out: Derived IC 50 (Transient transactivation assay)
[5] = biological target: T3, VDR:RXR, VDR:SRC-1 and VDR:NCoR interactions (Homo sapiens, UniProt P11473); assay: Mammalian 2-hybrid assay, summary in words of VDR coregulator interactions; assay type: cell-based
T3 sequence (P11473 1-427): T1 sequence (P11473 1-427)

[6] = biological target: human VDR ligand-binding domain; set-up: method as in PMID 21543282; settings: read-out: Tox21 IC 50, cited from earlier work
VDR:RXRα = biological target: T4, VDR:RXRα (Homo sapiens, UniProt P11473); assay: Mammalian 2-hybrid assay, recruitment of RXRα by VDR, Cos7 cells
T4 sequence (P11473 1-427): T1 sequence (P11473 1-427)

[7] = AC50 (μM), experimental AC50 as listed in Fig 4a, agonists
[8] = Derived AC50 (Transient transactivation assay), agonist mode, HEK293T cells, CYP24A1-Luc
[9] = agonists, orthogonal transient transactivation assay, HEK293T cells
[10] = agonists, -RXR (empty pSG5), percentage of vitamin D3, conc. in Fig 5: ergocalciferol 60, lithocholic acid 50, calcipotriol 0.05, ethylphenol compound 40, 9 aminoacridine 50, tamoxifen citrate 20 μM
[11] = top asymptote of Hill or Gain-Loss model, maximum response

Derived Efficacy (fold induction) (human VDR [1]): 29.470 fold induction | AC50 (human VDR [3]; [7]): 4.62 µM | AC50 (human VDR [3]; [8]): 9.32 µM | Activity (human VDR [3]; [9]): Active | % Induction, pMSRC-1NR + EpSG5 (VDR:SRC-1; [10]): 8.2%
Compound: Cc1cc(Cc2cc(C)cc(C(C)(C)C)c2O)c(O)c(C(C)(C)C)c1 [2,2′-methylenebis(6-tert-butyl-4-methylphenol)]
AC50 [2]: 32.1 µM

Derived Efficacy (fold induction) (human VDR [1]): 44.5165 fold induction | AC50 (human VDR [3]; [7]): 10.9 µM | AC50 (human VDR [3]; [8]): 12.6 µM | Activity (human VDR [3]; [9]): Active | Fold Change (pMNCoR + EpSG5) (VDR:NCoR; agonists, -RXR, fold induction compared to DMSO, 9 aminoacridine at 50 μM in Fig 5): 67.7 fold | % Induction, pMSRC-1NR + EpSG5 (VDR:SRC-1; [10]): 14.4%
Compound: Cl.Nc1c2ccccc2nc2ccccc12 [9 Aminoacridine monohydrochloride]
AC50 [2]: 4.25 to 11.1 µM

Compound: [Cl][Cd][Cl] [Cadmium chloride]
Activity (human VDR [4]): Active | Derived Efficacy (fold inhibition) (human VDR [4]): 44.5165 fold inhibition | IC50 (human VDR [4]): 0.38 µM | pattern of change of 1,25D3 induced VDR:coregulator interaction [5]: enhanced recruitment of VDR:RXR and VDR:SRC-1 in both the presence and absence of co-expressed coregulators | IC50 [6]: 0.171 µM | % Induction (pMRXRα + EpSG5) (VDR:RXRα): 175 | Fold Change (pMNCoR + EpSG5) (VDR:NCoR): 1.1

Activity (human VDR [4]; antagonists, transient transactivation assay in the presence of 3 nM 1,25D3): Active | Activity (human VDR [4]; antagonists, transient transactivation assay in the presence of 3 nM 1,25D3, listed as carfizomib): moderate to marked synergistic activity | IC50 (human VDR [4]; inhibition of 3 nM 1,25D3-induced response, HEK293T cells, unit given in Fig 3 legend): 0.53 µM and 0.538 µM | Derived Efficacy (fold inhibition) (human VDR [4]; [11]): 80.6485 fold inhibition | % Induction (pMRXRα + EpSG5) (VDR:RXRα; antagonists with 1,25D3, -SRC-1, percentage of vitamin D3, conc. in Fig 6: phenylarsine oxide 0.37, dibutyltin dichloride 1, K dicyanoaurate 6, aristolochic acid, carfizomib 12, menadiol 3 μM): 1908.1% | Activity (human VDR [3]; [9]): very weak agonist activity | % Induction (pMSRC-1NR + RXRα) (VDR:SRC-1; antagonists with 1,25D3, +RXR, percentage of vitamin D3, conc. in Fig 6: Cd chloride 12, dibutyltin dichloride 1, K dicyanoaurate 6, proscillaridin, aristolochic acid, carfizomib 12 μM): 296%
Compound: CC(C)C[C@H](NC(=O)[C@H](CCc1ccccc1)NC(=O)CN1CCOCC1)C(=O)N[C@@H](Cc1ccccc1)C(=O)N[C@@H](CC(C)C)C(=O)[C@@]1(C)CO1 [Carfizomib, reference compound]
IC50 ([6]; antagonist mode, Tox21 qHTS data set): 0.748 µM

Compound: CN1CCC(Nc2ncc3ncnc(Nc4ccc(F)c(Cl)c4)c3n2)CC1.Cl.Cl [Falnidamol dihydrochloride]
pattern of VDR:coregulator interaction facilitated by the ligand [5]: induced recruitment of RXR both in the presence and absence of co-transfected SRC-1 | Derived Efficacy (fold induction) (human VDR [1]): 9.9267 fold induction | AC50 [2]: 3.3 µM | activity in the Tox21 qHTS data set [2]: active | % Induction (pMRXRα + EpSG5) (VDR:RXRα): 5.3 | % Induction (pMRXRα + SRC- 1) (VDR:RXRα): 3.7 | Activity (human VDR [3]): consistently failed to exhibit any concentration response interactions; also recorded: Inactive

Compound: O=C(NC(=O)c1c(F)cccc1F)Nc1ccc(OC(F)(F)C(F)OC(F)(F)F)c(Cl)c1 (stereo not shown) [Novaluron]
pattern of VDR:coregulator interaction facilitated by the ligand [5]: Interaction between VDR:SRC-1 only in the absence of RXR | Derived Efficacy (fold induction) (human VDR [1]): 16.3718 fold induction | AC50 [2]: 23.4 µM | Activity (human VDR [3]): Active | AC50 (human VDR [3]; read-out: Derived AC50 (Transient transactivation assay)): 37.4 µM | % Induction, pMSRC-1NR + EpSG5 (VDR:SRC-1): 0.9

Compound: Nc1nc(N)c2nc(CNc3ccc(C(=O)N[C@@H](CCC(=O)O)C(=O)O)cc3)cnc2n1 [reference compound]
pattern of VDR:coregulator interaction facilitated by the ligand [5]: did not facilitate VDR:RXR or VDR:SRC-1 interactions under any condition | Activity (human VDR [1]): Active | AC50 [2]: 11.8 µM | AC50 (human VDR [3]; Derived AC50 (Transient transactivation assay)): 33.7 µM | Derived Efficacy (fold induction) (human VDR [3]; [11]): 16.3718 fold induction

Compound: Cadmium acetate dihydrate
Activity (human VDR [4]): Active | Derived Efficacy (fold inhibition) (human VDR [4]): 20.5478 fold inhibition | pattern of change of 1,25D3 induced VDR:coregulator interaction [5]: enhanced the interaction between VDR:RXR only in the presence of co transfected SRC-1 | IC50 [6]: 0.271 µM | % Induction (pMRXRα + SRC- 1) (VDR:RXRα): 165.6 | % Induction (pMSRC-1NR + RXRα) (VDR:SRC-1): 46.7 | % Induction, pMSRC-1NR + EpSG5 (VDR:SRC-1): 51.7

Compound: Cadmium reference solution
Activity (human VDR [4]): Active | Derived Efficacy (fold inhibition) (human VDR [4]): 76.1807 fold inhibition | IC50 (human VDR [4]): 0.198 µM | % Induction (pMRXRα + EpSG5) (VDR:RXRα): 23.7 | % Induction (pMRXRα + SRC- 1) (VDR:RXRα): 16 | Fold Change (pMNCoR + EpSG5) (VDR:NCoR): 0.7 | % Induction (pMSRC-1NR + RXRα) (VDR:SRC-1): 0.9 | % Induction, pMSRC-1NR + EpSG5 (VDR:SRC-1): 1.3
